Results on 7 compounds are retold here after ChEMBL document CHEMBL1133581, “Synthesis and in vitro and in vivo functional studies of ortho-substituted phenylpiperazine and N-substituted 4-N-(o-methoxyphenyl)aminopiperidine analogues of WAY100635” (J Med Chem, 2000).

Assay [1] is filed under the species Rattus norvegicus.
Assay [2] concerns the target T1, 5-hydroxytryptamine receptor 1A (Rattus norvegicus, UniProt P19327).
T1 sequence (P19327 whole entry): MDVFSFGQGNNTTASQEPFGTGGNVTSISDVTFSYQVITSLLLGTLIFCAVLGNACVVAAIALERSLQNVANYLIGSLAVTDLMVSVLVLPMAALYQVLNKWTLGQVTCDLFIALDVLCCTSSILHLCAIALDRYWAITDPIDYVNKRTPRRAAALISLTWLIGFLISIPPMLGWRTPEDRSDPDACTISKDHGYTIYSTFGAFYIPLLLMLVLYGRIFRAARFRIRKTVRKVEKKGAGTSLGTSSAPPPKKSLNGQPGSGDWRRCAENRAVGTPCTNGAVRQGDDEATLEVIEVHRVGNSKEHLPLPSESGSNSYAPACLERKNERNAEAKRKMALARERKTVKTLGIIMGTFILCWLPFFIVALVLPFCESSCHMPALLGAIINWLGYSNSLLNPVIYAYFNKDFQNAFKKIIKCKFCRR
The assay is described as follows: biochemical.
Description: In vitro affinity against 5-hydroxytryptamine 1A receptor using [3H]-8-OH-DPAT in rat hippocampus

For assay [3], the species on record is Rattus norvegicus. This is another data set of the same source.
Description: Ability to counteract the 8-OH-DPAT (1 mg/kg sc)-induced Hypothermia in rats (n=4) and evaluated for the decrease in body temperature (degrees Celsius) at 0.1(micro mol/kg)
For assay [4], the species on record is Rattus norvegicus. The source holds these as a separate data set.
Description: Ability to counteract the 8-OH-DPAT (1 mg/kg sc)-induced Hypothermia in rats (n=4) and evaluated for the decrease in body temperature (degrees Celsius) at 1.0(micro mol/kg)
A further assay is filed under the species Cavia porcellus. Nature of the assay: tissue or blood. The conditions noted are these: Ileum, read-out: pA2 (converted).
Assay [5] is filed under the species Rattus norvegicus. This is another data set of the same source.
Description: Ability to counteract the 8-OH-DPAT (1 mg/kg sc)-induced Hypothermia in rats (n=4) and evaluated for the decrease in body temperature (degrees Celsius) at 10(micro mol/kg)

Description for Cavia porcellus: Ability to antagonize the 8-OH-DPAT-induced contractions of a strip of guinea pig ileum tissue

`O=C(C1CCCCC1)N(CCN1CCN(c2ccccc2OCCF)CC1)c1ccccn1` had a Vocalization time in the assay filed under Rattus norvegicus [1] of 164 s. Also, the IC50 in assay [2] was 1.55 nM. Moreover, the figures for the Decrease in the assay filed under Rattus norvegicus [3], in the assay listed under Rattus norvegicus [4] and in the assay listed under Rattus norvegicus [5] were 1.8 °C, 1.1 °C and 0.4 °C, respectively. In the assay filed under Cavia porcellus, the Kb is 3.16 nM.

`CCCN(CCC)C1CCc2cccc(O)c2C1` (stereo not drawn) [8-OH-DPAT]: the Vocalization time in the assay listed under Rattus norvegicus [1] is 4.9 s. Besides, the Decrease in the assay filed under Rattus norvegicus [3] was found to be 2 °C.

`O=C(C1CCCCC1)N(CCN1CCN(c2ccccc2O)CC1)c1ccccn1` had a Vocalization time in the assay listed under Rattus norvegicus [1] of 166 s. Further, in assay [2], half-maximal inhibition (IC50) required 2.1 nM. Besides, the Decrease in the assay listed under Rattus norvegicus [3] was found to be 0.6 °C; in the assay filed under Rattus norvegicus [4], 0.2 °C; in the assay filed under Rattus norvegicus [5] it was 0.3 °C. The Kb in the assay filed under Cavia porcellus is 10 nM.

For `COc1ccccc1N(C)C1CCN(CCN(C(=O)C2CCCCC2)c2ccccn2)CC1`, in assay [2], half-maximal inhibition (IC50) required 1290 nM.

Compound `O=C(C1CCCCC1)N(CCN1CCN(c2ccccc2OCCCF)CC1)c1ccccn1` yielded a Vocalization time in the assay filed under Rattus norvegicus [1] of 171 s. This compound had an IC50 in assay [2] of 6.05 nM. The results for the Decrease in the assay filed under Rattus norvegicus [3], in the assay filed under Rattus norvegicus [4] and in the assay filed under Rattus norvegicus [5] were 2.4 °C, 0.6 °C and 0.5 °C, respectively. For the same compound, in the assay listed under Cavia porcellus, the Kb is 5.01 nM.

In turn, `O=C(C1CCCCC1)N(CCN1CCN(c2ccccc2OS(=O)(=O)C(F)(F)F)CC1)c1ccccn1` displayed a Vocalization time in the assay listed under Rattus norvegicus [1] of 146 s. Moreover, in assay [2], the midpoint of inhibition, the IC50, lay at 36 nM. Moreover, the Decrease in the assay filed under Rattus norvegicus [3] worked out at 1.5 °C; in the assay listed under Rattus norvegicus [4] it was 0 °C; in the assay listed under Rattus norvegicus [5] it was 0.3 °C. Also, the Kb in the assay filed under Cavia porcellus is 20 nM.

For the compound `CS(=O)(=O)Oc1ccccc1N1CCN(CCN(C(=O)C2CCCCC2)c2ccccn2)CC1`, the Vocalization time in the assay filed under Rattus norvegicus [1] was 167 s. Moreover, in assay [2], the IC50 came out at 7.25 nM. Moreover, the Decrease is 1.1 °C in the assay listed under Rattus norvegicus [3], 0.5 °C in the assay filed under Rattus norvegicus [4] and 0.4 °C in the assay filed under Rattus norvegicus [5]. Besides, the Kb in the assay filed under Cavia porcellus was 2.51 nM.
